Results published in PMC12633397 (bioRxiv, 2025).

Biological target: T1, esVHPO (Enhygromyxa salina, UniProt A0A0C2CTX7)
T1 sequence (A0A0C2CTX7 1-528): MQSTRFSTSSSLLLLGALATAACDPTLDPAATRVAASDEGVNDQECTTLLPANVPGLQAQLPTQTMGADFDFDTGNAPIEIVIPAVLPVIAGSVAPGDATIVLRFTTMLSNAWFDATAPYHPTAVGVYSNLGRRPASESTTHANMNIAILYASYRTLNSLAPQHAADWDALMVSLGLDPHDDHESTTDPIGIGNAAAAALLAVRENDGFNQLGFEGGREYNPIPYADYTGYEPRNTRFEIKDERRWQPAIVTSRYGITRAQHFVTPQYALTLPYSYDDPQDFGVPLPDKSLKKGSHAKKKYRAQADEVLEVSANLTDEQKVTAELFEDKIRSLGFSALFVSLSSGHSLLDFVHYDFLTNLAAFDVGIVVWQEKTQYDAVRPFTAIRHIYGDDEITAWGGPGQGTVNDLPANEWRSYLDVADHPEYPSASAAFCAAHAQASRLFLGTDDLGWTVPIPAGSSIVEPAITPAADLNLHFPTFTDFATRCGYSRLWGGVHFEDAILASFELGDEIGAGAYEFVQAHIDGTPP
Assay: UPLC-MS of Br-MHQ formation, steady-state kinetics
Assay type: biochemical
Details: 1 mM H2O2, 20 mM KBr, 100 μM Na3VO4, 20 mM HEPES-KOH, 10% glycerol, 28 °C; Hill fit, positive cooperativity; labelled compound (deuterated)

## Cc1cc(=O)c2ccccc2[nH]1 [C3-deuterated MHQ]
  K0.5: The steady state kinetics for C3-Deuterated-MHQ (D-MHQ) was performed precisely as for undeuterated MHQ
